According to US9409884B2 (Rigel Pharmaceuticals, Inc., priority 2012, dated 2016):
pEC50: −log10 of the molar value.

Each compound was assayed against AMPK (assay: AMPK activation, enzyme-linked immunosorbent assay). Conditions: Table 12, compounds of Table 5.
Format: biochemical
Outline: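 Read-out: ELISA, used to detect compound-driven activation of AMPK.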

Structure (SMILES)	pEC50
CC(C)(C)OC(=O)NCCCNC(=O)c1ccc(OC2CCN(Cc3ccc(C(F)(F)F)cc3)CC2)cc1 [Compound 5-95, tert-butyl 3-(4-(1-(4-(trifluoromethyl)benzyl)piperidin-4-yloxy)benzamido) propylcarbamate]	> 6.00
COc1ccc(CN2CCC(Oc3ccc(C(=O)N4CCN(C(=O)OC(C)(C)C)CC4)cc3)CC2)cc1 [Compound 5-96, tert-butyl 4-(4-(1-(4-methoxybenzyl)piperidin-4-yloxy)benzoyl)piperazine-1-carboxylate]	5.00 to 6.00
COc1ccc(CN2CCC(Oc3ccc(C(=O)NCCCNC(=O)OC(C)(C)C)cc3Cl)CC2)cc1 [Compound 5-97, tert-butyl 3-(3-chloro-4-(1-(4-methoxybenzyl)piperidin-4-yloxy)benzamido) propylcarbamate]	5.00 to 6.00
COc1cc(C(=O)NCCCN2CCOCC2)ccc1OC1CCN(Cc2ccc(Cl)cc2)CC1 [Compound 5-98, 4-(1-(4-chlorobenzyl)piperidin-4-yloxy)-4-methoxy-N-(3-morpholinopropyl)benzamide]	5.00 to 6.00
CC(C)(C)OC(=O)N1CCN(C(=O)c2ccc(OC3CCN(Cc4ccccc4)CC3)cc2)CC1 [Compound 5-99, tert-butyl 4-(4-(1-benzylpiperidin-4-yloxy)benzoyl)piperazine-1-carboxylate]	5.00 to 6.00
O=C(NCCCN1CCOCC1)c1ccc(OC2CCN(Cc3ccc(Cl)cc3)CC2)cc1 [Compound 5-100, 4-(1-(4-chlorobenzyl)piperidin-4-yloxy)-N-(3-morpholinopropyl)benzamide]	5.00 to 6.00
COc1ccc(CN2CCC(Oc3ccc(C(=O)NCCCN4CCOCC4)cc3Cl)CC2)cc1 [Compound 5-101, 3-chloro-4-(1-(4-methoxybenzyl)piperidin-4-yloxy)-N-(3-morpholinopropyl)benzamide]	4.70 to 5.00
CC(C)(C)OC(=O)NCCCNC(=O)c1ccc(OC2CCN(Cc3ccccc3)CC2)c(Cl)c1 [Compound 5-102, tert-butyl 3-(4-(1-benzylpiperidin-4-yloxy)-3-chlorobenzamido) propylcarbamate]	4.70 to 5.00
O=C(c1ccc(OC2CCN(Cc3ccccc3)CC2)cc1)N1CCN(c2ccccc2)CC1 [Compound 5-103, (4-(1-benzylpiperidin-4-yloxy)phenyl)(4-phenylpiperazin-l-yl)methanone]	4.30 to 4.70
Cc1ccc(CN2CCC(Oc3ccc(C(=O)NCCCN4CCOCC4)cc3)CC2)cc1 [Compound 5-104, 4-(1-(4-methylbenzyl)piperidin-4-yloxy)-N-(3-morpholinopropyl)benzamide]	4.70 to 5.00
O=C(c1ccc(OC2CCN(Cc3ccccc3)CC2)cc1)N1CCN(Cc2ccccn2)CC1 [Compound 5-105, (4-(1-benzylpiperidin-4-yloxy)phenyl)(4-(pyridin-2-ylmethyl)piperazin-1-yl)methanone]	4.70 to 5.00
COc1ccc(CN2CCC(NC(=O)c3cccc(OC4CCN(Cc5ccc(-c6ccccn6)cc5)CC4)c3)CC2)cc1 [Compound 5-106, N-(1-(4-methoxybenzyl)piperidin-4-yl)-3-(1-(4-(pyridin-2-yl)benzyl)piperidin-4-yloxy)benzamide]	> 6.00
COc1ccc(CN2CCC(NC(=O)c3cccc(OC4CCN(Cc5ccc(OC)cc5)CC4)c3)CC2)cc1 [Compound 5-107, N-(1-(4-methoxybenzyl)piperidin-4-yl)-3-(1-(4-methoxybenzyl)piperidin-4-yloxy)benzamide]	> 6.00
COc1ccc(CN2CCC(NC(=O)c3cccc(OC4CCN(Cc5ccc(C(F)(F)F)cc5)CC4)c3)CC2)cc1 [Compound 5-108, N-(1-(4-methoxybenzyl)piperidin-4-yl)-3-(1-(4-(trifluoromethyl)benzyl)piperidin-4-yloxy)benzamide]	> 6.00
COc1ccc(CN2CCC(NC(=O)c3cccc(OC4CCN(Cc5ccc(N6CCOCC6)cc5)CC4)c3)CC2)cc1 [Compound 5-109, N-(1-(4-methoxybenzyl)piperidin-4-yl)-3-(1-(4-morpholinobenzyl)piperidin-4-yloxy)benzamide]	> 6.00
COc1ccc(CN2CCC(NC(=O)c3cccc(OC4CCN(CC5CCN(c6ccccc6)CC5)CC4)c3)CC2)cc1 [Compound 5-110, N-(1-(4-methoxybenzyl)piperidin-4-yl)-3-(1-((1-phenylpiperidin-4-yl)methyl)piperidin-4-yloxy)benzamide]	> 6.00
COc1ccc(CN2CCC(NC(=O)c3cccc(OC4CCN(Cc5cnn(-c6ccc(F)cc6)c5)CC4)c3)CC2)cc1 [Compound 5-111, 3-(1-((1-(4-fluorophenyl)-1H-pyrazol-4-yl)methyl)piperidin-4-yloxy)-N-(1-(4-methoxybenzyl)piperidin-4-yl)benzamide]	> 6.00
COC(=O)c1ccc(CN2CCC(Oc3cccc(C(=O)NC4CCN(Cc5ccc(OC)cc5)CC4)c3)CC2)cc1 [Compound 5-112, methyl 4-((4-(3-(l-(4-methoxybenzyl)piperidin-4-ylcarbamoyl)phenoxy)piperidin-1-yl)methyl)benzoate]	5.00 to 6.00

Structure (SMILES)	pEC50
COc1ccc(CN2CCC(NC(=O)c3cccc(OC4CCN(Cc5ccc(Oc6ccc(C#N)cc6)cc5)CC4)c3)CC2)cc1 [Compound 5-113, 3-(1-(4-(4-cyanophenoxy)benzyl)piperidin-4-yloxy)-N-(1-(4-methoxybenzyl)piperidin-4-yl)benzamide]	> 6.00
COc1ccc(CN2CCC(NC(=O)c3cccc(OC4CCN(Cc5cnn(-c6ccccn6)c5)CC4)c3)CC2)cc1 [Compound 5-114, N-(1-(4-methoxybenzyl)piperidin-4-yl)-3-(1-((1-(pyridin-2-yl)-1H-pyrazol-4-yl)methyl)piperidin-4-yloxy)benzamide]	5.00 to 6.00
N#Cc1ccc(CN2CCC(NC(=O)c3cccc(OC4CCN(c5ccc(C#N)cc5)CC4)c3)CC2)cc1 [Compound 5-115, N-(1-(4-cyanobenzyl)piperidin-4-yl)-3-(1-(4-cyanophenyl)piperidin-4-yloxy)benzamide]	> 6.00
N#Cc1ccc(CN2CCC(NC(=O)c3cccc(OC4CCN(Cc5ccc(N6CCCC6)cc5)CC4)c3)CC2)cc1 [Compound 5-116, N-(1-(4-cyanobenzyl)piperidin-4-yl)-3-(1-(4-(pyrrolidin-1-yl)benzyl)piperidin-4-yloxy)benzamide]	> 6.00
N#Cc1ccc(CN2CCC(NC(=O)c3cccc(OC4CCN(Cc5ccc(Oc6ccccc6)cc5)CC4)c3)CC2)cc1 [Compound 5-117, N-(1-(4-cyanobenzyl)piperidin-4-yl)-3-(1-(4-phenoxybenzyl)piperidin-4-yloxy)benzamide]	> 6.00
N#Cc1ccc(CN2CCC(NC(=O)c3cccc(OC4CCN(Cc5ccc(-c6ccccn6)cc5)CC4)c3)CC2)cc1 [Compound 5-118, N-(1-(4-cyanobenzyl)piperidin-4-yl)-3-(1-(4-(pyridin-2-yl)benzyl)piperidin-4-yloxy)benzamide]	> 6.00
N#Cc1ccc(CN2CCC(NC(=O)c3cccc(OC4CCN(Cc5ccc(-n6cccn6)cc5)CC4)c3)CC2)cc1 [Compound 5-119, 3-(l-(4-(lH-pyrazol-1-yl)benzyl)piperidin-4-yloxy)-N-(1-(4-cyanobenzyl)piperidin-4-yl)benzamide]	> 6.00
N#Cc1ccc(CN2CCC(NC(=O)c3cccc(OC4CCN(Cc5ccc(C#N)c(F)c5)CC4)c3)CC2)cc1 [Compound 5-120, 3-(1-(4-cyano-3-fluorobenzyl)piperidin-4-yloxy)-N-(1-(4-cyanobenzyl)piperidin-4-yl)benzamide]	> 6.00
CC(C)Oc1ccc(CN2CCC(Oc3cccc(C(=O)NC4CCN(Cc5ccc(C#N)cc5)CC4)c3)CC2)cc1 [Compound 5-121, N-(1-(4-cyanobenzyl)piperidin-4-yl)-3-(1-(4-isopropoxybenzyl)piperidin-4-yloxy)benzamide]	> 6.00
N#Cc1ccc(CN2CCC(NC(=O)c3cccc(OC4CCN(Cc5cnn(-c6ccc(F)cc6)c5)CC4)c3)CC2)cc1 [Compound 5-122, N-(1-(4-cyanobenzyl)piperidin-4-yl)-3-(1-((1-(4-fluorophenyl)-1H-pyrazol-4-yl)methyl)piperidin-4-yloxy)benzamide]	> 6.00
N#Cc1ccc(CN2CCC(NC(=O)c3cccc(OC4CCN(Cc5ccc(OC(F)(F)F)cc5)CC4)c3)CC2)cc1 [Compound 5-123, N-(1-(4-cyanobenzyl)piperidin-4-yl)-3-(1-(4-(trifluoromethoxy)benzyl)piperidin-4-yloxy)benzamide]	< 4.00
N#Cc1ccc(CN2CCC(NC(=O)c3cccc(OC4CCN(Cc5ccc(C#N)cc5)CC4)c3)CC2)cc1 [Compound 5-124, N-(1-(4-cyanobenzyl)piperidin-4-yl)-3-(1-(4-cyanobenzyl)piperidin-4-yloxy)benzamide]	> 6.00
N#Cc1ccc(CN2CCC(NC(=O)c3cccc(OC4CCN(Cc5ccc(C(F)(F)F)cc5)CC4)c3)CC2)cc1 [Compound 5-125, N-(1-(4-cyanobenzyl)piperidin-4-yl)-3-(1-(4-(trifluoromethyl)benzyl)piperidin-4-yloxy)benzamide]	> 6.00
N#Cc1ccc(CN2CCC(NC(=O)c3cccc(O[C@@H]4CCN(Cc5ccc(C(F)(F)F)cc5)C[C@H]4F)c3)CC2)cc1 [Compound 5-126, N-(1-(4-cyanobenzyl)piperidin-4-yl)-3-((3,4-trans)-3-fluoro-1-(4-(trifluoromethyl)benzyl)piperidin-4-yloxy)benzamide]	> 6.00
CC(C)Oc1ccc(CN2CC[C@@H](Oc3cccc(C(=O)NC4CCN(Cc5ccc(C#N)cc5)CC4)c3)[C@H](F)C2)cc1 [Compound 5-127, N-(1-(4-cyanobenzyl)piperidin-4-yl)-3-((3,4-trans)-3-fluoro-1-(4-isopropoxybenzyl)piperidin-4-yloxy)benzamide]	> 6.00
CS(=O)(=O)c1ccc(CN2CC[C@@H](Oc3cccc(C(=O)NC4CCN(Cc5ccc(C#N)cc5)CC4)c3)[C@H](F)C2)cc1 [Compound 5-128, N-(1-(4-cyanobenzyl)piperidin-4-yl)-3-((3,4-trans)-3-fluoro-1-(4-(methylsulfonyl)benzyl)piperidin-4-yloxy)benzamide]	> 6.00
N#Cc1ccc(CN2CCC(NC(=O)c3cccc(O[C@@H]4CCN(Cc5ccc(C#N)c(F)c5)C[C@H]4F)c3)CC2)cc1 [Compound 5-129, 3-((3,4-trans)-1-(4-cyano-3-fluorobenzyl)-3-fluoropiperidin-4-yloxy)-N-(1-(4-cyanobenzyl)piperidin-4-yl)benzamide]	> 6.00
